What was measured:
[1] = system: a-adrenergic receptors; experiment: α-adrenergic blocking potency, animal tests; assay type: in vivo; conditions: relative to labetalol (assigned value 1.0)
Description: (§1) The a- and β-blocking activities discussed earlier in this specification can be determined by known methods, e.g. by those of Farmer et.al., Brit. J. Pharm., 45, 660 (1972); Robson, J. Pharm. Exp. Therap., 175, 157 (1970), and Levy, Arch. Int. Pharmacodyn. Ther., 204,. 143 (197-3).

[2] = system: β-adrenergic receptors; experiment: β-adrenergic blocking potency, animal tests; assay type: in vivo; conditions: for β-blocking potency: relative to labetalol (assigned value 1.0), animal tests
Description: as §1

[3] = system: β-adrenergic receptors; conditions: as disclosed in British patent specifications 1,541,932 and 1,541,933; cited from earlier work
[4] = direct peripheral vasodilation activity; assay type: in vivo; conditions: compared with labetalol
[5] = toxicity at therapeutic doses; assay type: in vivo
[6] = antihypertensive activity, laboratory tests, oral dosing; assay type: in vivo; conditions: result in words

Row | a-blocking potency [1] | ratio of the β-adrenergic blocking potency to the a-adrenergic blocking potency ([2]; compared with labetalol) | SMILES | β-blocking potency [2] | β-adrenergic blocking activity [3] | direct peripheral vasodilation activity [4] | toxicity [5] | antihypertensive activity [6]
1 | half | – | C[C@H](CCc1ccccc1)NC[C@H](O)c1ccc(O)c(C(N)=O)c1 (racemic) [diastereoisomer B, reference compound] | not significantly different from that of labetalol | – | – | – | –
2 | – | – | CC(CCc1ccccc1)NCC(O)c1ccc(O)c(C(N)=O)c1 (racemic) [diastereoisomer A] | – | strongly reduced | – | – | –
3 | about one third | greatly and unexpectedly increased | C[C@H](CCc1ccccc1)NC[C@H](O)c1ccc(O)c(C(N)=O)c1 (single isomer, unassigned; isomer 5) [(R,R) optical isomer] | about twelve times | – | greater direct peripheral vasodilation activity than labetalol | substantially non-toxic | potent antihypertensive activity

Reference: EP0009702A1, “A phenylalkylaminoethylsalicylamide, its preparation and pharmaceutical compositions containing it” (SCHERING CORPORATION, priority 1978, dated 1980)
